Results from patent US9161944B2, “Method for preventing cancer metastasis” (INSERM (INSTITUT NATIONAL DE LA SANTE ET DE LA SANTE ET DE …, priority 2010, dated 2015).
Like-named read-outs stand apart in the source and are kept apart here. Each block holds one compound with its values, some of them ahead of it.

Assays:
MDA-MB-435s (SK3+) = test: Cell migration / 2D motility assay (transwell inserts, wound healing); assay type: cell-based, human; conditions: for Effect on cell migration: summary of table 2
Text: Alternatively, the cell migration inhibitory activity of a compound of formula (I) may be assessed by performing a Wound Healing assay that is disclosed in the examples herein and for which the one skilled in the art may also refer to the article of Rodriguez et al. (2005, Methods Biol Mol, Vol. 294: 23-29). The wound-healing assay is simple, inexpensive, and one of the earliest developed methods to study directional cell migration in vitro. This method mimics cell migration during wound healing in vivo. The basic steps involve creating a “wound” in a cell monolayer, capturing the images at the beginning and at regular intervals during cell migration to close the wound, and comparing the images to quantify the migration rate of the cells. It is particularly suitable for studies on the effects of cell-matrix and cell-cell interactions on cell migration. Cells are seeded in culture dishes and grown until confluence in DMEM supplemented with 10% foetal calf serum. The monolayer is then scratched with a sterile yellow pipette tip. Then, migration of cells to the cleared area is inspected under a microscope. Pictures are taken directly at the time of scratching and after 24 h, so as to determine the ability of the tested cells to migrate.
Wound healing assay: Cells were seeded in culture dishes and grown until confluence in DMEM supplemented with 10% foetal calf serum. The monolayer was scratched with a sterile yellow pipette tip. The migration of cells to the cleared area was inspected under a microscope. Pictures were taken directly at the time of scratching and after 24 h.
At least three independent experiments were each performed in triplicate.

MDA-MB-435s [1] = test: Cytotoxicity / cell viability (MTT, tetrazolium salt reduction)
SK3/KCa2.3 channel = SK3/KCa2.3 channel (Homo sapiens, UniProt Q9UGI6); test: Whole-cell patch clamp on HEK293 cells expressing SK3; assay type: cell-based; design: expressed in transfected cells; host or cells: HEK293, lentiviral transduction, clonal selection; conditions: for Conductance decreasing / Inhibition of I at 0 mV: HEK 293 LvSK3 cells; for Inhibition of I at 0 mV: 10 μM stated for JPH1701; for Effect on SK3 activity: less effect than JPH1701
Description: The percentages of inhibition represent the ratio (SK3 current amplitude and chord conductance (in the presence of 10 μM JPH1701)/SK3 current amplitude in control experiments). Black bars show current at 0 mV and grey bars indicate the chord conductance. […] Columns, mean, bars, SEM, (5 cells for racemic mix and 4 cells for + and − forms).
MDA-MB-435s and HEK293 cells were transduced with lentiviral vector at multiplicities of infection (MOI) of 1 to 3 in the presence of polybrene (4 μg/ml, Sigma).
Experiments were performed with cells seeded into 35-mm Petri dishes at 3000 cells per cm2. All experiments were performed using the conventional whole-cell recording configuration of the patch-clamp technique as previously described. PCa solution was 7 and 6.4 respectively for MDA-MB-435s and HEK293-SK3/KCa2.3 cells.
Briefly, experiments were conducted using Axopatch 200B patch-clamp amplifier (Axon Instrument) and data, digitized with 1322-A Digidata converter (Axon Instrument), were stored on a computer using Clampex of pClamp 9.2 software (Axon Instru-ment). The patch-clamp data was analyzed using both Clampfit 9.2 and Origin 7.0 software (Microcal Inc., Northampton, Mass., USA).
The pipette solution for the whole-cell recordings contained (in mM): K-glutamate 125, KCl 20, MgCl2 1, Mg-ATP 1, HEPES 10, and pH was adjusted to 7.2 with KOH and various concentrations of CaCl2 and EGTA were added to obtain calculated pCa=7 (0.37 mM CaCl2 and 10 mM EGTA) or pCa=6.4 (0.7 mM CaCl2 and 1 mM EGTA).
We next developed HEK cells expressing SK3/KCa2.3 channel in order to test directly analogues on SK3 activity measured using patch-clamp technique (FIG. 8). […] The JPH1701-induced inhibition of SK3 current was analysed at 0 mV and the entire time course of the experiment is depicted in FIG. 8A.
Current activity has been measured in HEK 293 LvSK3 and in MDA-MB-435s cells. The percentages represent the inhibition of current and of conductance by compounds on SK3 channel in HEK 293 cells.

MDA-MB-435s [2] = test system: MDA-MB-435s
[3] = Cytotoxicity / cell viability (MTT, tetrazolium salt reduction); conditions: human
PAF receptor [4] = molecular target: T1, PAF receptor (Homo sapiens, UniProt P25105); test: PAF receptor agonist response (increase of intracellular calcium); assay type: cell-based; conditions: 0.3 and 2 μM, FIG. 11B
T1 sequence (P25105 whole entry): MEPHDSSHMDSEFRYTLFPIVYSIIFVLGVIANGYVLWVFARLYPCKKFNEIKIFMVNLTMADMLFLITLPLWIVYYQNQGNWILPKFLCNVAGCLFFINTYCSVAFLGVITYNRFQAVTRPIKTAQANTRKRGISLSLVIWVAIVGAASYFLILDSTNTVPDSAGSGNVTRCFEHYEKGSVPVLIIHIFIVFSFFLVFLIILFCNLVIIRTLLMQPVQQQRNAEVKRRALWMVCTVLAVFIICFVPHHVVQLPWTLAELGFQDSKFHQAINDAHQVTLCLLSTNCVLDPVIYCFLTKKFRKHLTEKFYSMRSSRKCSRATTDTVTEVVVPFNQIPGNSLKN
Description: (§1) FIG. 11: Effects of JPH1701 on PAF receptor, PLC and PKCs activities. FIG. 11A) Histogram showing the percentage of control specific binding of 3H-C16-PAF to recombinant PAF receptor obtained from membrane homogenates of CHO cells by 0.3 and 2 μM edelfosine and by 0.3 and 2 μM JPH1701. FIG. 11B) Histogram showing the percentage of control agonist response (% effect i.e: increase of intracellular calcium concentration) of 0.3 and 2 μM edelfosine and JPH1701 on PAF receptor normalized to the response induced by 100 nM C16-PAF. […] FIG. 11C-D) Dose responses curves showing the effect of JPH1701 on PKCs (FIG. 11C, PKCs are: alpha, Beta 1, Beta 2, Gamma, Delta, Epsilon, Zeta, Eta, Theta, Iota) and PhosphoLipase C (PLC) activities (FIG. 11D).

PhosphoLipase C (PLC) = test: PhosphoLipase C activity; assay type: biochemical; conditions: FIG. 11D
Description: as §1

PAF receptor [5] = molecular target: T1, PAF receptor; test: 3H-C16-PAF binding, membrane homogenates of CHO cells; design: expressed in transfected cells; host or cells: CHO cells (membrane homogenates); conditions: 0.3 and 2 μM, FIG. 11A
Description: as §1

[6] = Table 2, viability of MDA-MB-435s
[7] = Homo sapiens, MDA-MB-435S, Table 2, concentration 300 nM

SMILES: CCCCCCCCCCCCCCCCOCC(COP(=O)([O-])OCC[N+](C)(C)C)OC(C)=O (centres unmarked) [PAF, reference compound]
- Migration (% of inhibition) (MDA-MB-435s (SK3+); Table 2, concentration 300 nM): No effect
- Effect on cell migration (MDA-MB-435s (SK3+)): no effect on cell migration
- Toxicity (MDA-MB-435s [1]; [6]): No until 100 μM

- Conductance decreasing (SK3/KCa2.3 channel): 18.1 ± 2.3%
- Inhibition of I at 0 mV (SK3/KCa2.3 channel): 22.8 ± 2.1%
- Effect on SK3 activity (SK3/KCa2.3 channel): reduced SK3 activity
SMILES: CCCCCCCCCCCCCCCCOC[C@H](CO[C@@H]1O[C@H](COC(C)=O)[C@@H](O[C@@H]2O[C@H](COC(C)=O)[C@H](OC(C)=O)[C@H](OC(C)=O)[C@H]2OC(C)=O)[C@H](OC(C)=O)[C@H]1OC(C)=O)OC [JPH1700]

SMILES: CCCCCCCCCCCCCCCCOCC(O)CO (centres unmarked) [GS 1361]
- Migration (% of inhibition) (MDA-MB-435s (SK3+); Table 2, concentration 300 nM): 40%
- Toxicity (MDA-MB-435s [2]): No at 10 μM

SMILES: CCCCCCCCCCCCCCCCOCC(CO)OC (centres unmarked) [JPH 1597]
- Migration (% of inhibition) (MDA-MB-435s (SK3+); Table 2, concentration 300 nM): No effect
- Effect on cell migration (MDA-MB-435s (SK3+)): decrease its inhibitory effect on cell migration
- Toxicity (MDA-MB-435s [2]): No at 10 μM
- IC50 (MDA-MB-435s [1]; [6]): ~50 µM

SMILES: CCCCCCCCCCCCCCCCOCC(COP(=O)(O)OCC[N+](C)(C)C)OC (centres unmarked) [JPH 1321]
- inhibition at 0.1 µM (MDA-MB-435s (SK3+); Homo sapiens, MDA-MB-435S, Table 1, concentration 100 nM, read-out: Cell Migration inhibition of MDA-MB-435s (SK3+), Inhibitory effect): 50%
- IC50 at 24 h ([3]; MDA-MB-435s cells): ~30 µM

- Conductance decreasing (SK3/KCa2.3 channel): 38.9 ± 5.5%
- Inhibition of I at 0 mV (SK3/KCa2.3 channel): 42.5 ± 8.2%
- Effect on SK3 activity (SK3/KCa2.3 channel): reduced SK3 activity
SMILES: CCCCCCCCCCCCCCCCOCC(COP(=O)(O)OC1OC(COC(C)=O)C(OC2OC(COC(C)=O)C(OC(C)=O)C(OC(C)=O)C2OC(C)=O)C(OC(C)=O)C1OC(C)=O)OC.CCN(CC)CC (mixture of isomers) [CHS31]

SMILES: CCCCCCCCCCCCCCCCCCOP(=O)([O-])OCC[N+](C)(C)C [SK55]
- Effect on cell migration (MDA-MB-435s (SK3+)): ineffective on cell migration
- IC50 (MDA-MB-435s [1]; [6]): ~20 µM

SMILES: CCCCCOCC(O)CO[C@@H]1O[C@H](COC(C)=O)[C@@H](OC(C)=O)[C@H](OC(C)=O)[C@H]1OC(C)=O (some centres unmarked) [HCG450]
- Toxicity (MDA-MB-435s [2]): Yes at 10 μM
- IC50 (MDA-MB-435s [1]; [6]): ~30 µM

SMILES: CCCCCCCCCCCCCCCCCCOCC(CO[C@@H]1O[C@H](CO)[C@@H](O[C@@H]2O[C@H](CO)[C@H](O)[C@H](O)[C@H]2O)[C@H](O)[C@H]1O)OC (some centres unmarked) [JPH 1731]
- Migration (% of inhibition) (MDA-MB-435s (SK3+); Table 2, concentration 100 nM): 30%

SMILES: CCCCCCCCCCCCCCCCCCOCC(COP(=O)([O-])OCC[N+](C)(C)C)OC (centres unmarked) [Edelfosine, reference compound]
- inhibition at 0.01 µM (MDA-MB-435s (SK3+); Homo sapiens, MDA-MB-435S, Table 2, concentration 10 nM): 60%
- inhibition at 0.3 µM (MDA-MB-435s (SK3+); [7]): 80%
- PAF receptor agonist response (PAF receptor [4]): dose-dependently increase intracellular calcium
- IC50 (PhosphoLipase C (PLC)): 2.5 µM
- IC50 at 24 h ([3]; MDA-MB-435s cells (metastatic cancer cell line)): < 5 µM
- IC50 (MDA-MB-435s [1]; Homo sapiens, MDA-MB-435S): ~5 µM
- Toxicity (MDA-MB-435s [1]; [6]): Yes at 10 μM
- Interaction with C16-PAF binding site of PAF receptor (PAF receptor [5]): able to interact

- Conductance decreasing (SK3/KCa2.3 channel): 34.1 ± 6.8%
- Inhibition of I at 0 mV (SK3/KCa2.3 channel): 44.0 ± 5.5%
SMILES: CCCCCCCCCCCCCCCCOC[C@H](CO[C@@H]1O[C@H](CO[C@H]2O[C@H](COC(C)=O)[C@H](OC(C)=O)[C@H](OC(C)=O)[C@H]2OC(C)=O)[C@@H](OC(C)=O)[C@H](OC(C)=O)[C@H]1OC(C)=O)OC [JPH1874]

- Conductance decreasing (SK3/KCa2.3 channel): 46.1 ± 6.1%
- Inhibition of I at 0 mV (SK3/KCa2.3 channel): 44.7 ± 5.0%
SMILES: CCCCCCCCCCCCCCCCOC[C@H](CO[C@@H]1O[C@H](COC(C)=O)[C@@H](O[C@H]2O[C@H](COC(C)=O)[C@@H](OC(C)=O)[C@H](OC(C)=O)[C@H]2OC(C)=O)[C@H](OC(C)=O)[C@H]1OC(C)=O)OC [JPH1880]

SMILES: CCCCCCCCCCCCCCCCOCC(CO[C@@H]1O[C@H](CO)[C@H](O)[C@H](O)[C@H]1O)OC (some centres unmarked) [JPH 1524]
- Migration (% of inhibition) (MDA-MB-435s (SK3+); Table 2, concentration 300 nM): 20%
- Toxicity (MDA-MB-435s [2]): Yes at 10 μM
- IC50 (MDA-MB-435s [1]; [6]): ~10 µM

SMILES: CCCCCOCC(O)CO[C@@H]1O[C@H](CO)[C@@H](O)[C@H](O)[C@H]1O (some centres unmarked) [HCG451]
- Migration (% of inhibition) (MDA-MB-435s (SK3+); Table 2, concentration 300 nM): No effect
- Effect on cell migration (MDA-MB-435s (SK3+)): ineffective in cell migration
- Toxicity (MDA-MB-435s [2]): No until 100 μM

SMILES: CCCCCCCCCCCCCCCCOCC(CO[C@@H]1O[C@H](COC(C)=O)[C@H](OC(C)=O)[C@H](OC(C)=O)[C@H]1OC(C)=O)OC (some centres unmarked) [JPH 1519]
- Migration (% of inhibition) (MDA-MB-435s (SK3+); Table 2, concentration 100 nM): 20%

SMILES: CCCCCCCCCCCCCCCCOP(=O)([O-])OCC[N+](C)(C)C [Miltefosine, reference compound]
- inhibition at 0.3 µM (MDA-MB-435s (SK3+); [7]): 20%
- Effect on cell migration (MDA-MB-435s (SK3+)): ineffective on cell migration
- IC50 (MDA-MB-435s [1]; Homo sapiens, MDA-MB-435S): ~10 µM
